Where two headings read alike, the source gives them in different places.
What was measured:
β2-adaptin [1] = molecular target: T1, β2-adaptin (Homo sapiens, UniProt P63010); test: differential scanning fluorimetry (CPM dye) on purified β2-appendage, dose-dependent Tm shift; supported by GST-β2-adaptin([…]) pull-down and cell BRET (IC50 […] for β-arrestin1, from cell BRET); assay type: cell-based
T1 construct: gene AP2B1; residues 700-937 StrepTagII used only for DSF

β2-adaptin [2] = molecular target: T1, β2-adaptin; test: cell-based; set-up: species or system HEK293T; conditions: β-arrestin1/β2-adaptin interaction, V2R stimulated; read-out: IC50 AP2/βarr1 (V2R)
Description: To assess the potency of these compounds, concentration-response curves of the inhibitory actions of the compounds on the V2R-stimulated β-arrestin/β2-adaptin interaction were carried out. In addition to compounds #33 and #42, compound #1 was included in the analysis as a negative control (Fig. 2a–c). […] First, the reversible mode of action of Barbadin was assessed by incubating cells with Barbadin for 30 min and monitoring BRET between β2-adaptin and β-arrestin1 following, or not, extensive wash before AVP stimulation. […] HEK293T cells stably expressing β2-adaptin-YFP (ref. [24]) were cultured as aforementioned with the addition of G418 in the supplemented DMEM. Forty-eight hours before the experiments, 10 μg of total DNA (adjusted with salmon sperm DNA) was used to transfect 6 × 10^6 cells per ml in 10-cm dishes using 25-kDa linear PEI as a transfecting agent (3:1 PEI/DNA ratio). […] On the day of the BRET experiment, cells were washed, detached and resuspended in Tyrode's buffer. Cells (10^5 cells per well) were distributed in 96-wells microplates. DMSO or compounds selected from the virtual screening were preincubated for 30 min at indicated concentrations, always keeping DMSO at 1% final concentration in each well. Cells were treated with AVP or ISO at the indicated times and concentrations, at room temperature. Coelenterazine H (for YFP BRET acceptor) or coelenterazine 400 A (for GFP10 BRET acceptor) was added at a final concentration of 2.5 μM five minutes before measurements. Readings were collected with a Mithras LB 940 multidetector plate reader (Berthold Technologies) to integrate signals detected in the 485/20 nm and 530/25 nm windows for the Renilla luciferase (RlucII) and YFP light emissions, respectively, and in the 400/70 nm and 515/25 nm windows for the RlucII and GFP10 light emissions, respectively. The BRET signal was determined by calculating the ratio of the light intensity emitted by the YFP or GFP10 over the light intensity emitted by the RlucII. Net BR

β2-adaptin [3] = test: cells; set-up: species or system HEK293T; ebBRET receptor-RlucII with rGFP-CAAX, inhibition of agonist-induced receptor loss from plasma membrane; conditions: Homo sapiens, HEK-293T, 0.5 h; β2AR endocytosis, ISO 10 uM 30 min; read-out: IC50 membrane localization β2AR
Source text: Because the interaction between β-arrestins and β2-adaptin is important for initiating receptor internalization, we next sought to determine whether Barbadin could be used as a pharmacological tool, to block the ligand-promoted endocytosis of GPCRs. For this purpose, we used enhanced bystander BRET (ebBRET) trafficking sensors allowing to monitor both receptor disappearance from the plasma membrane (rGFP-CAAX sensor, Fig. 4a) and their accumulation in early endosomes (rGFP-FYVE, Fig. 4e) in spectrometric and microscopy-based assays. […] The effect of Barbadin on endocytosis was further confirmed using BRET-microscopy allowing to image receptor localization at the plasma membrane (Fig. 4i and Supplementary Fig. 5i), and in early endosomes (Supplementary Fig. 5j), coherent with the spectrometric measurements (Fig. 4b–d,f–h). Figure 4 Barbadin inhibits GPCRs endocytosis. […] (b–d,f–h) V2R, β2AR or AT1R interaction with either rGFP-CAAX (b–d, respectively) or rGFP-FYVE (f–h, respectively) was assessed by BRET following HEK293T cells pre-incubation with DMSO or Barbadin (100 μM) for 30 min before AVP (100 nM), ISO (10 μM) or AngII (1 μM) stimulation for the indicated times. […] To generate BRET images, the ratio of acceptor photon counts to donor photon counts was calculated for each pixel and expressed as a colour-coded heat map (lowest being black and purple, and highest red and white). […]

β2-adaptin [4] = test: cells; set-up: species or system HEK293T; ebBRET receptor-RlucII with rGFP-FYVE, inhibition of agonist-induced receptor accumulation in early endosomes; conditions: Homo sapiens, HEK-293T, 0.5 h
Source text: Because the interaction between β-arrestins and β2-adaptin is important for initiating receptor internalization, we next sought to determine whether Barbadin could be used as a pharmacological tool, to block the ligand-promoted endocytosis of GPCRs. For this purpose, we used enhanced bystander BRET (ebBRET) trafficking sensors allowing to monitor both receptor disappearance from the plasma membrane (rGFP-CAAX sensor, Fig. 4a) and their accumulation in early endosomes (rGFP-FYVE, Fig. 4e) in spectrometric and microscopy-based assays. […] The effect of Barbadin on endocytosis was further confirmed using BRET-microscopy allowing to image receptor localization at the plasma membrane (Fig. 4i and Supplementary Fig. 5i), and in early endosomes (Supplementary Fig. 5j), coherent with the spectrometric measurements (Fig. 4b–d,f–h).  Figure 4 Barbadin inhibits GPCRs endocytosis. (a,e) Schematic representation of the ebBRET-based assay used to follow agonist-induced receptor loss from the cell surface by monitoring the interaction between receptor-RLucII and rGFP-CAAX (a) or its translocation into endosomes using rGFP-FYVE (e). (b–d,f–h) V2R, β2AR or AT1R interaction with either rGFP-CAAX (b–d, respectively) or rGFP-FYVE (f–h, respectively) was assessed by BRET following HEK293T cells pre-incubation with DMSO or Barbadin (100 μM) for 30 min before AVP (100 nM), ISO (10 μM) or AngII (1 μM) stimulation for the indicated times. Data are the mean±s.e.m. of a least three independent experiments. (i) V2R localization was imaged by BRET. HEK293T cells were transfected with V2R-RlucII and rGFP-CAAX, pretreated with DMSO or Barbadin (100 μM) for 30 min and then stimulated with 100 nM AVP for 30 min. To generate BRET images, the ratio of acceptor photon counts to donor photon counts was calculated for each pixel and expressed as a colour-coded heat map (lowest being black and purple, and highest red and white). Scale bar, 10 μm.

[5] = molecular target: T2, β2-adaptin(700–937)-StrepTagII (human, UniProt P63010 700-937); test: differential scanning fluorimetry (thermal shift); 0.78 μM purified β2-adaptin (700–937) in PBS with 0.5 mM Triton X-100, 30 min with 20 μM β-arrestin1 C-terminal peptide; CPM dye; 30 °C to 90 °C at 6 °C per min; conditions: both partners purified
T2 construct: human β2-adaptin, residues 700 to 937 (appendage domain); printed molecular weight 26.88 kDa; Cloned into pRSETA between BamHI and Acc65I; also called β2-appendage; β-appendage; source: E. coli BL21 pLysS, purified (Strep-Tactin Sepharose, sepharose column, gel filtration)
T2 sequence (looked up): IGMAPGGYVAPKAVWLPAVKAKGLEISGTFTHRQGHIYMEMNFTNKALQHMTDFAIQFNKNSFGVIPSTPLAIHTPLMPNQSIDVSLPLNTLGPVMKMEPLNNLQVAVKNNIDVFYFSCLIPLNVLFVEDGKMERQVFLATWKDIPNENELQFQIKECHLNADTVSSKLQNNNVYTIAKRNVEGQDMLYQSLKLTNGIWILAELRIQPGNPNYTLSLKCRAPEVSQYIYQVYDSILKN

T1 sequence (P63010 2-937): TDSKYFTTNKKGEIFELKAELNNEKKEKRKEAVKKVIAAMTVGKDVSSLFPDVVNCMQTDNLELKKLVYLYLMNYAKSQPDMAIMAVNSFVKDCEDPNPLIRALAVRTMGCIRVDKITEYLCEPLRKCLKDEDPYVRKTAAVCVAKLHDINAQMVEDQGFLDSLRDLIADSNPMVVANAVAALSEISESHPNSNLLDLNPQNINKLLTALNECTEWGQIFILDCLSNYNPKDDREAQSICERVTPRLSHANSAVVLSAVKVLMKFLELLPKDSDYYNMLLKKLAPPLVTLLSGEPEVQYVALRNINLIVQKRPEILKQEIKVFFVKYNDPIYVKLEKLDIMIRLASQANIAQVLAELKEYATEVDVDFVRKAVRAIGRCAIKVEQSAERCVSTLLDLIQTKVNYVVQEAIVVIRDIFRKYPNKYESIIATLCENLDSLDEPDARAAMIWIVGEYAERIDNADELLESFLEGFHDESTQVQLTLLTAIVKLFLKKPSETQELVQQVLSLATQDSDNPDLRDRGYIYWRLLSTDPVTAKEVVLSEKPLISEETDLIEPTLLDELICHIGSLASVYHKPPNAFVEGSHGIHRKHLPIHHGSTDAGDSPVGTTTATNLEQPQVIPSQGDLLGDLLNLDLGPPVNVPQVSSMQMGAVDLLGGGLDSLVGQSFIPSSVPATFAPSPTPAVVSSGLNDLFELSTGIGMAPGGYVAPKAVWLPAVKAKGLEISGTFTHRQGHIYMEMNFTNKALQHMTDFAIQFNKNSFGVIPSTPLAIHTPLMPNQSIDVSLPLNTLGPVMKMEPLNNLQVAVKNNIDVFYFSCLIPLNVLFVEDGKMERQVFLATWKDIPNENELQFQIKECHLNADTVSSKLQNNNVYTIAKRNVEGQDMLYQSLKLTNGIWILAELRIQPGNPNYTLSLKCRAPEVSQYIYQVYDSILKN
T1 sequence (P49407 whole entry partner, the tested form may be a part): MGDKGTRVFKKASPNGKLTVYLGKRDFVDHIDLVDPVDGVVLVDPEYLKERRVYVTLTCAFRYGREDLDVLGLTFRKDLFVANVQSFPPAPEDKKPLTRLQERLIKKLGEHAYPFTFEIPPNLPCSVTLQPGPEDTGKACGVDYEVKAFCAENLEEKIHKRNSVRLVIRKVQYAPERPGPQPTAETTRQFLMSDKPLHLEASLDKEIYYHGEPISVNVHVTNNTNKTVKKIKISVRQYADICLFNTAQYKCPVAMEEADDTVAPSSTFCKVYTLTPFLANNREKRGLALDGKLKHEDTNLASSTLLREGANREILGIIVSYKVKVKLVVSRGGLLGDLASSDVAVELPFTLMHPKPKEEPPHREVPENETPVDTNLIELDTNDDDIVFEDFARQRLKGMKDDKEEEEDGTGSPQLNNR

`Nn1cnc2scc(-c3ccc(Cc4ccccc4)cc3)c2c1=O` [#42, 3-amino-5-(4-benzylphenyl)-3H,4H-thieno[2,3-d]pyrimidin-4-one] showed an IC50 (β2-adaptin [1]) of 19.1 µM, an IC50 (β2-adaptin [2]) of 14.6 ± 5 µM and an IC50 (β2-adaptin [3]) of 18.2 ± 7.7 µM. For the same molecule, the IC50 (β2-adaptin [4]; AT1R endocytosis, AngII 1 uM 30 min, read-out: IC50 endosome localization AT1R) was 40.6 ± 24.4 µM, the IC50 (β2-adaptin [4]; V2R endocytosis, AVP 100 nM 30 min, read-out: IC50 endosome localization V2R) was 31.5 ± 14.4 µM and the IC50 (β2-adaptin [4]; β2AR endocytosis, ISO 10 uM 30 min, read-out: IC50 endosome localization β2AR) was 18.4 ± 9.8 µM.

For `Nn1cnc2scc(-c3ccc(-c4ccccc4)cc3)c2c1=O` [Analogue-C], the IC50 (β2-adaptin [2]) was 54.3 ± 45 µM.

With `Cc1nc2scc(-c3ccc(C(C)(C)C)cc3)c2c(=O)n1N` [Cpd #43] the IC50 (β2-adaptin [2]) was 15.4 ± 6.4 µM.

B1: β-arrestin1 C-terminal peptide (peptide)
peptide: DDDIVFEDFARQRLKGMKDD
notes: C-terminal stretch of β-arrestin1; holds Phe-388, Phe-391 and Arg-395; also called β-arrestin1 C-tail peptide; 20-mer β-arrestin C-tail peptide; source: synthetic peptide (Genscript)
B1: binds [5].

— paper PMC5399295 (Nature Communications, 2017)
